The values below come from patent US6689817B1, “Process for preparing guaifenesin tannate” (Jame Fine Chemicals, Inc., priority 2001, dated 2004).

A short description of data set [1]: Methylene chloride solubility test of milled guaifenesin tannate powders (Example 4). It is filed as physicochemical. Here is the method:
Two gram samples of finely milled guaifenesin tannate powders were taken from each of the products prepared in Examples 1-3. Each sample was mixed with 110 g of methylene chloride and was stirred for 10 minutes at ambient temperature. Each mixture was then filtered. The insoluble material was dried and weighed and the filtrate was evaporated to dryness and the residue was weighed The results were as follows: […]

The conditions of data set [2]: background statement, cited from earlier work; for solubility in alcohols: alcohols such as methanol, ethanol, isopropanol.
Data set [3] can be described thus: Solubility in water and organic solvents (descriptive).

Read-outs that look alike come from different tables or passages of the source.

Regarding guaifenesin tannate [Example 1], in data set [1] (2 g sample mixed with 110 g methylene chloride, stirred 10 minutes at ambient temperature, filtered, insoluble material dried and weighed), the “Insoluble Ppt.” value came out at 1.94 g. The “Soluble Ppt.” value in data set [1] (2 g sample mixed with 110 g methylene chloride, stirred 10 minutes at ambient temperature, filtrate evaporated to dryness, residue weighed) was below 8 mg.

Consider guaifenesin tannate, for which the “solubility in methylene chloride (conclusion from Example 4)” value in data set [1] is listed as “insoluble”.

Regarding guaifenesin tannate [Example 2], in data set [1], the “Insoluble Ppt.” value turned out to be 1.95 g and the “Soluble Ppt.” value is listed as below 10 mg.

As for `O=C(OC[C@H]1O[C@@H](OC(=O)c2cc(O)c(O)c(OC(=O)c3cc(O)c(O)c(O)c3)c2)[C@H](OC(=O)c2cc(O)c(O)c(OC(=O)c3cc(O)c(O)c(O)c3)c2)[C@@H](OC(=O)c2cc(O)c(O)c(OC(=O)c3cc(O)c(O)c(O)c3)c2)[C@@H]1OC(=O)c1cc(O)c(O)c(OC(=O)c2cc(O)c(O)c(O)c2)c1)c1cc(O)c(O)c(OC(=O)c2cc(O)c(O)c(O)c2)c1` [tannic acid], in data set [2], the “solubility in alcohols” value is listed as “highly soluble” and the “solubility in water” value is given as “highly soluble”. In data set [3], the solubility in alcohols result was “soluble”, the “solubility in methylene chloride” value is given as “insoluble”, the solubility in toluene entry is listed as “insoluble” and the solubility in water entry is “soluble”. Further, the solubility in chloroform result in data set [3] (chloroform) was “insoluble”.

`COc1ccccc1OCC(O)CO` (centres unmarked) [guaifenesin, 3-(2-methoxyphenoxy)-1,2-propanediol]: in data set [2], the “solubility in alcohols” value was “readily soluble” and the solubility in water result is reported as “about 5 wt. %”. For the same molecule, in data set [3], the solubility in alcohols entry is on record as “soluble”, the “solubility in methylene chloride” value is recorded as “soluble”, the solubility in toluene result is reported as “sparingly soluble” and the solubility in water entry is given as “soluble”.

On to guaifenesin tannate [Example 3], for which, in data set [1], the “Insoluble Ppt.” value turned out to be 1.945 g and the “Soluble Ppt.” value is recorded as below 7 mg.
